Experimental findings from US20230158151A1 (NURIX THERAPEUTICS, INC., priority 2021, published 2023) are described below.

The target of one data set is T1, ITK (Homo sapiens, UniProt Q08881).
T1 construct: Compounds provided herein were assayed in vitro with ITK HiBit cell lines; endogenous in cells; host or cells: Molt4 (ATCC CRL-1552 [sic]), monoclonal clone 1C10
T1 sequence (Q08881 1-620): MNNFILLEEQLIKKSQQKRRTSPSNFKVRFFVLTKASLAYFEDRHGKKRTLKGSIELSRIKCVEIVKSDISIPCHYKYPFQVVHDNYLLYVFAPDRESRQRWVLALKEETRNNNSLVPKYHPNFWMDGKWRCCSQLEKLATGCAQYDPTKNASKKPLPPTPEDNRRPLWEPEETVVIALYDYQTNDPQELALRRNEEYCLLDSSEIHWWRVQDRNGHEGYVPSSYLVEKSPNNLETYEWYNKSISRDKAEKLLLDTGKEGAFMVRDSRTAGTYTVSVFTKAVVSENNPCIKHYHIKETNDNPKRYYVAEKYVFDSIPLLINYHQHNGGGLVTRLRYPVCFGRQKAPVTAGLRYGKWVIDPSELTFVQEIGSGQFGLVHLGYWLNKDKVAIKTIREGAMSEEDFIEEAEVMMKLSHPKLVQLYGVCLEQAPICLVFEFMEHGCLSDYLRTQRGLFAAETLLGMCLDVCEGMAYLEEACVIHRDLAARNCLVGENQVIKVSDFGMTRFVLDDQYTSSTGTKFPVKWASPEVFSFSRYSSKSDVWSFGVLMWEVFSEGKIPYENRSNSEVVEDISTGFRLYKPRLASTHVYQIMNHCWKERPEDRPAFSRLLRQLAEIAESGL
Put plainly: ITK Degradation HiBiT Assay. In kind it is cell-based. Here is the method:
Compounds provided herein were assayed in vitro with ITK HiBit cell lines. Compound dilution series (11-point, 5 fold dilutions in DMSO, columns 2-12 with replicate in rows A/B, C/D, E/F, G, H at 2000× the final required concentrations were prepared in 96 well plate (Falcon, cat. no. 353077). Column 1, rows A-H were control DMSO. The 2000× solutions ranged from 2 mM to 1.024 nM (final assay concentration range 1 μM to […]). The 2000× solutions were added to cells in […], for a final DMSO concentration of 0.5% and final assay compound concentration of 1×. For the cells, C-terminal HiBiT-tagged Molt4 cells (ATCC CRL-1552, monoclonal cell line clone 1C10) were plated at 1×10^6 cells/mL, 100 μL/well ([…]) in complete RPMI (10% FBS, 1% L-glutamine). The cells were incubated with compound 32 and compound 30 for 4 hrs at 32° C./6% CO2.
Following incubation, 100 μL of complete Nano-Glo HiBiT Lytic Detection Reagent (Nano-Glo HiBiT Lytic Buffer with 1:50 Nano-Glo HiBiT Lytic Substrate and 1:100 LgBiT Protein; Promega cat. no. N3O40) was added. Cells were further incubated for 10 min at room temperature (RT). Luminescence units (LU) were read on an EnVision plate reader (Perkin Elmer, 0.1 sec per well). Percent ITK remaining per sample was calculated as follows: […]
Using Graphpad Prism, % ITK remaining values were plotted as a function of compound concentration. To determine DC50 and Dmax values, resulting curves were fit to the Prism curve-fitting equation “log(inhibitor) vs response−Variable slope (four parameters)” (reported best fit value IC50 used as DC50). ITK was measured with antibody-based MSD (Meso-Scale Discovery) assays shown below.
On the technique in general: With HiBiT, luminescence reflects the tagged protein that the partner subunit can reach.

A short description of data set [1]: Mouse PK Analysis (plasma LC/MS/MS, noncompartmental PK parameters). The note with it: mice; for AUC(0-t) / Cmax / Tmax: mouse, oral administration, plasma. In kind it is in vivo. Set-up: AUC(0-t): concentration or dose not given beside the values. Here is the method:
Compounds 30 and 29 were administered to mice orally. After 6 hours or 24 hours, splenocytes cells were harvested. ITK was evaluated by Western blotting. Plasma concentrations were determined by LC/MS/MS. Plasma samples were protein precipitated by addition of 100 μl of acetonitrile containing 50 ng/ml of internal standard. The resulting mixture was vortexed and centrifuged at 4000 RPM for 5 minutes. An aliquot of the resultant supernatant (75 μl) was added to 75 μl of 0.1% formic acid in water to constitute the final sample for injection. Samples were injected on a Shimadzu Exion LC Binary Gradient AD Pump HLPC system connected to a Sciex QTRAP 6500+ mass spectrometer. Five μl of sample was injected onto a Waters Acquity UPLC BEH C18 column 130A (2.1×30 mm, […]) at 40° C. utilizing a flow rate of 700 μl/minute. Mobile Phase A was 0.1% formic acid in water and mobile phase B was 0.1% formic acid in acetonitrile. A linear gradient of 15-95% B over 1.0 minute was used. The mass spectrometer was operated in positive ion electrospray mode with multiple reaction monitoring for maximum sensitivity. Sciex Analyst software (version 1.6.3) was used for LC/MS/MS instrument control and acquisition. Compound concentration was determined against a standard curve of internal standard versus compound peak area ratio. Noncompartmental PK parameters were determined using Phoenix 32 software (version 8.2.0.4383) from Certara. Plasma concentrations from the LC/MS/MS analyses, dose, route of administration, and desired units were utilized for PK parameter calculations. […] FIG. 3C provides the concentration over time of compound 30 following in vivo oral administration in the 6 hour and 24 hour assays.
Cmax, Tmax and AUClast were all calculated using a WinNonLin Phoenix 64 v 8.2.0.4383. Using non-compartmental analysis, Tmax, Cmax and AUClast were determined as follows:
Tmax—Time of maximum observed concentration. Cmax—Maximum observed concentration, occurring at time Tmax, as defined above. AUClast—Area under the curve from the time of dosing to the time of the last measurable (positive) concentration (Tlast).

[2] abbreviates: MOLT-4, C-terminal HiBiT-tagged Molt4 cells, 4 hrs incubation, read-out: HiBiT DMax (%).

Read-outs that look alike come from different tables or passages of the source.

As for `C[C@@H](C(=O)N(C)c1ccc2cc(-c3n[nH]c4c3C[C@@H]3C(F)(F)[C@]3(C)C4)[nH]c2c1)N1CCN(CC2CCN(c3ccc(C4CCC(=O)NC4=O)cn3)CC2)CC1` (stereo partly drawn) [Compound 30, (2S)—N-(2-((4aS,5aR)-5,5-difluoro-5a-methyl-1,4,4a,5,5a,6-hexahydrocyclopropa[f]indazol-3-yl)-1H-indol-6-yl)-2-(4-((1-(5-(2,6-dioxopiperidin-3-yl)pyridin-2-yl)piperidin-4-yl)methyl)piperazin-1-yl)-N-methylpropanamide], the Dmax – broadly, the largest share of the target that was removed – on ITK (ITK degradation in HiBiT cell line, FIG. 1, read-out: Dmax values (FIG. 1)) lay within 90 to 100%. On ITK (setting [2]), the Dmax was found to be 85%. In addition, the detection in plasma result in data set [1] (oral, 6 hour and 24 hour assays) was “detected in plasma through 6 and 24 hours”. In data set [1], the AUC(0-t) (commonly the area under the concentration-time curve up to a stated or last time point) is 1.25 µM·h; the peak level (Cmax) was 870 nM; the Tmax – broadly, the time at which the peak concentration occurs – turned out to be 2 h.
`CC1(C)CCc2c(-c3cc4ccc(C(=O)N5CCN(CC6CCN(c7ccc(C8CCC(=O)NC8=O)nc7)CC6)CC5)cc4[nH]3)n[nH]c2C1` (centres unmarked) [Compound 42, 3-(5-(4-((4-(2-(6,6-dimethyl-4,5,6,7-tetrahydro-1H-indazol-3-yl)-1H-indole-6-carbonyl)piperazin-1-yl)methyl)piperidin-1-yl)pyridin-2-yl)piperidine-2,6-dione]: half-maximal degradation on ITK (C-terminal HiBiT-tagged Molt4 cells, 4 hrs incubation) (DC50) was put at 3 pM. On ITK (setting [2]), the Dmax came out at 88%. For the same compound, in data set [1], the AUC(0-t) came to 28 µM·h, the highest level (Cmax) was 5100 nM and the Tmax worked out at 2 h.
For the compound `CN(C(=O)CC1CCN(c2ccc(C3CCC(=O)NC3=O)cn2)CC1)c1ccc2cc(-c3n[nH]c4c3C[C@@H]3C(F)(F)[C@]3(C)C4)[nH]c2c1` (some centres unmarked) [Compound 27], in data set [1], the AUC(0-t) is 1.69 µM·h, the peak level (Cmax) was 609 nM and the Tmax amounted to 1 h.
